Results reported in ChEMBL document CHEMBL1144857, “4-Biphenyl and 2-naphthyl substituted 6,7-dimethoxytetrahydroisoquinoline derivatives as potent P-gp modulators” (Bioorg Med Chem, 2008).
The source made the active and inactive calls. The calls are words filed in the database; no cut-off is given here.

Key:
[1] = Inhibition of human P-gp mediated [3H]vinblastine transport activity in human Caco-2 cells; format: cell-based; conditions: Caco-2, 2 h
[2] = biological target: ATP-dependent translocase ABCB1 (Homo sapiens, UniProt P08183); test: Activation of human P-gp ATPase in human Caco-2 cells at 100 uM; format: cell-based; conditions: caco-2, 100 µM
Caco-2 [3] = test: (§1) Apparent permeability from basolateral to apical side of human Caco-2 cell membrane; format: ADME, cell-based
Caco-2 [4] = test: (§2) Apparent permeability from apical to basolateral side of human Caco-2 cell membrane; format: ADME, cell-based
Caco-2 [5] = test: Ratio of permeability from […] side of human Caco-2 cell membrane; format: ADME, cell-based
[6] = as §1; format: ADME, cell-based
[7] = as §2; format: ADME, cell-based
MCF7 = test: Antiproliferative activity against adriamycin resistant human MCF7 cells after 24 hrs by MTT assay; format: functional, cell-based
BCRP (ABCG2) = biological target: T1, BCRP (ABCG2) (Homo sapiens, UniProt Q9UNQ0); test: Inhibition of human BCRP mediated [3H]mitoxantrone transport activity in human Caco-2 cells at 100 uM; format: cell-based; conditions: Caco-2, probe [3H]mitoxantrone
T1 sequence (Q9UNQ0 whole entry): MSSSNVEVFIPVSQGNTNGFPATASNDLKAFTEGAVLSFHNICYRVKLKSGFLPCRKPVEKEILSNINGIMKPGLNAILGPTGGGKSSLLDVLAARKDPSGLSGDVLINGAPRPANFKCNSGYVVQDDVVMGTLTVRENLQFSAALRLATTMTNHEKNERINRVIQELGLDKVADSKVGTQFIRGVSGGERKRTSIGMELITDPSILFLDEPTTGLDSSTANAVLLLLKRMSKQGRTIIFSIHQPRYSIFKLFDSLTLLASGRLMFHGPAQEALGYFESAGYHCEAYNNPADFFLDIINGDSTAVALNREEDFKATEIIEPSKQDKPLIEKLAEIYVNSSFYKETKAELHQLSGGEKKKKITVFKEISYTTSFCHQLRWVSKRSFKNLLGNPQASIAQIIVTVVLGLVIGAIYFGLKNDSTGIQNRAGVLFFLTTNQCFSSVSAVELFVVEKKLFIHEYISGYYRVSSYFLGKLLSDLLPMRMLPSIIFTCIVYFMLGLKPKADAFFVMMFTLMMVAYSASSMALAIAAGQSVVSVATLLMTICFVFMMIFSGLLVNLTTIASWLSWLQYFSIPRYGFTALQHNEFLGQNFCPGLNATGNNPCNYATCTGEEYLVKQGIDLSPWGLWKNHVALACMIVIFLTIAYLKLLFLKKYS

[8] = Activity at P-pg
[9] = biological target: T2, Broad substrate specificity ATP-binding cassette transporter ABCG2 (Homo sapiens, UniProt Q9UNQ0); test: Inhibition of human BCRP mediated [3H]mitoxantrone transport activity in human Caco-2 cells; format: cell-based
T2 sequence (Q9UNQ0 whole entry): T1 sequence (Q9UNQ0 whole entry)

ATP-dependent translocase ABCB1, sequence (P08183 whole entry): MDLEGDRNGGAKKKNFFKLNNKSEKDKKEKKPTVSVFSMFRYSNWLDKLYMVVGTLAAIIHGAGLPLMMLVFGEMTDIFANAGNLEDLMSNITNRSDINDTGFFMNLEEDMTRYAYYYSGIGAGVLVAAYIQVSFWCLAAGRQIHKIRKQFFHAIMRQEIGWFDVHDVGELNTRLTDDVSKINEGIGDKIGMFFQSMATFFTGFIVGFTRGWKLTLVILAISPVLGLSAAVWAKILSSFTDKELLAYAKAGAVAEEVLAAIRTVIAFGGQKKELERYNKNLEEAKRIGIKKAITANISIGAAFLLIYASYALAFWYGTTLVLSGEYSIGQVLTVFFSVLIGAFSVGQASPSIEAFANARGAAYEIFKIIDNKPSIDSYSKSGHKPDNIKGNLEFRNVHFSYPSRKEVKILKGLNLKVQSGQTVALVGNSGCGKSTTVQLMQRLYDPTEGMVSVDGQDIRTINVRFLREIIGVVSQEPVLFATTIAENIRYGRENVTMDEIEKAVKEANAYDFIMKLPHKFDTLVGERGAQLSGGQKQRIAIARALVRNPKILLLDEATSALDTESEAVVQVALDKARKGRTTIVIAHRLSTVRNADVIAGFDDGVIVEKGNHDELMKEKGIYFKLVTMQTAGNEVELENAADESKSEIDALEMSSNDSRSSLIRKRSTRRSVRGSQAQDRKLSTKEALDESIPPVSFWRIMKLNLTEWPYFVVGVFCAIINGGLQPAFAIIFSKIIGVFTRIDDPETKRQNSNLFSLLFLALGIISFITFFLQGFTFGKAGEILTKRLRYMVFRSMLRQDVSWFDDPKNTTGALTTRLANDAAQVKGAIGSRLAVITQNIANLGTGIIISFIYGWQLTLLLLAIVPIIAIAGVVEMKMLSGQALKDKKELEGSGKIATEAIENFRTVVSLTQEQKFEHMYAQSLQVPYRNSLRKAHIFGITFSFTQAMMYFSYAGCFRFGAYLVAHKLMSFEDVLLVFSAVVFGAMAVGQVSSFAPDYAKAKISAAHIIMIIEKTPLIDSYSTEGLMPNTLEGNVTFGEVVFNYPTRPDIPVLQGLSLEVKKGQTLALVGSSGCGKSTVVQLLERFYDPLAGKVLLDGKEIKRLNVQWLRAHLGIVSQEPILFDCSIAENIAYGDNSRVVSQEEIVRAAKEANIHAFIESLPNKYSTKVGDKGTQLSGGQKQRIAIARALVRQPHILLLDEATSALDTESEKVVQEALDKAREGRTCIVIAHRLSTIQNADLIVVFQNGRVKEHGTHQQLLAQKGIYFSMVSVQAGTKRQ

EC50 [1] [µM]	Activity [2]	Papp (Caco-2 [3]) [nm/s]	Papp (Caco-2 [4]) [nm/s]	Ratio (Caco-2 [5])	Papp B→A [6] [nm/s]	Papp A→B [7] [nm/s]	EC50 [8] [µM]	Structure (SMILES)	Activity (MCF7)	inhibition at 100 µM (BCRP (ABCG2)) [%]	Activity [9]
0.3	Not Active	677	187	3.6	–	–	–	COc1ccc2cc(CN3CCc4cc(OC)c(OC)cc4C3)ccc2c1	–	–	–
0.65	40%	–	–	–	1900	251	–	COc1cc2c(cc1OC)CN(C(=O)c1ccc3cc(O)ccc3c1)CC2	–	–	–
3.5	Not Active	–	–	–	2770	280	–	COc1cc2c(cc1OC)CN(C(=O)c1ccc(-c3ccc(O)cc3)cc1)CC2	–	–	–
0.45	10%	–	–	–	2350	353	–	COc1cc2c(cc1OC)CN(Cc1ccc3cc(O)ccc3c1)CC2	–	–	–
6.5	Not Active	–	–	–	3660	301	–	COc1cc2c(cc1OC)CN(Cc1cccc(-c3ccccc3)c1)CC2	–	–	–
0.05	Not Active	–	–	–	609	476	–	COc1cc2c(cc1OC)CN(Cc1ccc(-c3ccc(O)cc3)cc1)CC2	inactive	19	–
18	Not Active	–	–	–	1230	193	–	COc1ccc2cc(C(=O)N3CCc4cc(OC)c(OC)cc4C3)ccc2c1	–	–	–
2	Not Active	–	–	–	–	–	–	COc1cc2c(cc1OC)CN(CCc1ccc(NC(=O)c3cccc4c(=O)c5cccc(OC)c5[nH]c34)cc1)CC2	–	–	–
20	10%	–	–	–	4150	324	–	COc1cc2c(cc1OC)CN(C(=O)c1ccc3ccccc3c1)CC2	–	–	–
28	35%	–	–	–	2440	601	–	COc1cc2c(cc1OC)CN(C(=O)c1ccc(-c3ccccc3)cc1)CC2	–	–	–
0.1	Not Active	–	–	–	1410	777	–	COc1cc2c(cc1OC)CN(Cc1ccc(-c3ccccc3)cc1)CC2	inactive	–	–
–	–	–	–	–	–	–	0.55	COc1cccc2c1CCCC2CCCN1CCN(C2CCCCC2)CC1 (stereo not drawn)	–	–	–
15	Not Active	–	–	–	1970	216	–	COc1cc2c(cc1OC)CN(Cc1ccccc1-c1ccccc1)CC2	–	–	–
0.8	Not Active	–	–	–	1800	216	–	COc1cc2c(cc1OC)CN(Cc1ccc3ccccc3c1)CC2	–	–	–
1.64	Not Active	–	–	–	–	–	–	COc1cc2c(cc1OC)CN(CC/C=C1\CCCc3c(OC)cccc31)CC2	–	–	Active
